We go through 13 molecules from patent publication US20260055078A1, “COMPOUND FUNCTIONING AS SMARCA2/4 INHIBITOR AND USE THEREOF” (Gan & Lee Pharmaceuticals Co., Ltd., priority 2022, published 2026).

pIC50: −log10 of the molar value. A value given as a limit tells only on which side of the number the result lay.

One series addresses T1, SMARCA2^BD protein (Homo sapiens, UniProt P51531, I1395R).
T1 construct: His-SMARCA2^BD(S1377-Q1486); His6 (leader mhhhhhhgslvpr\gs, with thrombin-type site lvpr\gs) (N); made in house
Briefly: Fluorescence polarization (FP) detection, SMARCA2 bromodomain. The format is binding. Conditions: probe 10 nM, SMARCA2^BD protein 50 nM, 2 h room temperature. How it is done: (§1) • 1. Perform a fluorescence polarization assay on with the target protein, which has been expressed and purified from prokaryotic cells to a purity of >90%.
(§2) • 2. The fluorescence polarization assay was conducted in a 384-well plate (3820, Corning) protected from light, with an excitation wavelength of 485 nm and an emission wavelength of 520 nm. Fluorescent probe was used in the experiment, and the buffer solution was 25 mM Bis-Tris, 0.01% Triton X-100, at pH 7.5. The final concentration of DMSO after the addition of the compound was less than 1%. The final detection volume per well was 125 μl, containing 50 μl of the fluorescent probe (final concentration 10 nM), 50 μl of SMARCA2^BD protein (final concentration 50 nM) or 50 μl of SMARCA4^BD protein (final concentration 120 nM), and 25 μl of the compound at various concentrations (final concentration ranging from 0 to 100 µM with a 3-fold dilution, a total of 11 concentrations). A control group (probe+protein), a probe control group (probe only), and a blank control group (buffer only) were set up. The fluorescence values were read by an ELISA reader r (SPARK m1000 pro, TECAN) after incubation for 2 h at room temperature on a shaker. The polarization value mP is calculated based on the fluorescence values in parallel and perpendicular directions of each well, and then the inhibition rate is calculated based on the mP value:
(§3) The inhibition rate data was plotted in GraphPad Prism 8.0 software and the IC50 value was calculated.
On the technique in general: In fluorescence polarisation assays a small probe gives low polarisation when free and higher when bound to something large.

For the next series, the target named is T2, SMARCA4^BD protein (Homo sapiens, UniProt P51532).
T2 construct: His6 (leader mhhhhhhgslvpr\gs, with thrombin-type site lvpr\gs) (N); made in house
The series can be described thus: Fluorescence polarization (FP) detection, SMARCA4 bromodomain. The format is binding. Conditions: probe 10 nM, SMARCA4^BD protein 120 nM, 2 h room temperature. How it is done:
as §1, §2, §3

In a further series the test system is A549 cell line. Briefly: Cell proliferation assay (CCK-8), A549. In kind it is cell-based. Conditions: Homo sapiens, A549, 96 h; Table 1; 4 days incubation with compound; read-out: A549 cell line CCK8 IC50. How it is done: (§4) The antiproliferative activity of the compounds on the cells was determined by CCK-8 kit (C0039, Biotronik). A549 (CCL-185™, ATCC) and MCF-7 (HTB-22™, ATCC) cells were incubated with F-12K medium (30-2004, ATCC) containing 10% FBS (10099141C, Gibco) and DMEM medium (11995065, Gibco) containing 10% FBS, respectively, at 37° C. with 5% CO2 until entering the logarithmic growth phase. In 96-well plates, 2800 cells (A549) or 1000 cells (MCF-7) was added in a volume of 100 μL, the blank control group was 100 μL of medium. After one day of incubation at 37° C., 5% CO2, 100 μL of compounds of different concentrations were added (final concentration of […], 3-fold dilution, a total of 9 concentrations), and the control group was added to 100 μL of medium and continued to be incubation for 4 days (A549) or 7 days (MCF-7). According to the manufacturer's instructions, 20 μL of CCK-8 solution was added. Finally, the absorbance at 450 nm was measured using a microplate reader (SPARK m1000 pro, TECAN) after incubation at 37° C. for 2 h (A549) or 4 h (MCF-7).
(§5) The inhibition rate of the compounds on the cells at different concentrations was calculated based on the OD values of each well, and the inhibition rate data were plotted in GraphPad Prism 8.0 software to calculate the IC50 values.

The test system of the next series is MCF-7 cell line. The series can be described thus: Cell proliferation assay (CCK-8), MCF-7. In kind it is cell-based. Conditions: Homo sapiens, MCF7, 168 h; Table 1; 7 days incubation with compound; read-out: MCF-7 cell line CCK8 IC50. How it is done:
as §4, §5

In the next series the test system is Hela cell line. Briefly: Cell proliferation assay (CCK-8), Hela. In kind it is cell-based. The following applies: Homo sapiens, 72 h, Table 2, 3 days incubation with compound, read-out: Hela cell line CCK8 IC50. How it is done: (§6) The antiproliferative activity of the compounds on the cells was determined by CCK-8 kit (C0039, Biotronik). Hela (CCL-2™, ATCC) and SW1573 (CRL-2170™, ATCC) cells were incubated with DMEM medium (11995065, Gibco) containing 10% FBS (10099141C, Gibco) at 37° C. with 5% CO2 until entering the logarithmic growth phase. In 96-well plates, 2500 cells (Hela) or 800 cells (SW1573) were added in a volume of 100 μL, the blank control group was 100 μL of medium, and after one day of incubation at 37° C., 5% CO2, 100 μL of compounds of different concentrations were added (final concentration of […], 3-fold dilution, a total of 9 concentrations), and the control group was added to 100 μL of medium and continued to incubate for 3 days (Hela) or 7 days (SW1573). Then 20 μL of CCK-8 solution were added. Finally, the absorbance at 450 nm was measured using a microplate reader (SPARK m1000 pro, TECAN) after incubation at 37° C. for 1.5 h (Hela) or 2.5 h (SW1573).
as §5

The next series concerns SW1573 cell line. The series can be described thus: Cell proliferation assay (CCK-8), SW1573. In kind it is cell-based. Conditions: Homo sapiens, SW1573, 168 h; Table 2; 7 days incubation with compound; read-out: SW1573 cell line CCK8 IC50. How it is done: as §6, §5
The test system of the next series is 148 cancer cells. Conditions: background, literature; cited from earlier work.
For series [1] the following is noted: aryl ketone linked to tertiary amines; limited intracellular exposure time; literature; cited from earlier work.

T1 sequence (P51531 1377-1486 isoform P51531-2 I1395R): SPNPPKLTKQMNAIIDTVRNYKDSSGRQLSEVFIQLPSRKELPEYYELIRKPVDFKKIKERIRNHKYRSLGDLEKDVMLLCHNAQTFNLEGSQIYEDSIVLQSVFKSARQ
T2 sequence (P51532 1448-1575): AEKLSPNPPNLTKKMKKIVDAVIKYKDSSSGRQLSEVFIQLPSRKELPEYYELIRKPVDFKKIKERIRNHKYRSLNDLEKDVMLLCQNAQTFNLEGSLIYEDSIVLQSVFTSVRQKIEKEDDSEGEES

As for `Nc1nnc(-c2ccccc2O)cc1C#CC1CCNCC1` [Compound 1c, 2-(6-amino-5-(piperidin-4-ylethynyl)pyridazin-3-yl)phenol], the pIC50 (commonly the IC50 on a negative log10 scale, so that one unit is a factor of ten) at SMARCA2^BD protein (Table 1) is 6.72; on SMARCA4^BD protein (Table 1) it was 6.52; in the series with A549 cell line, 4.60; in the series with MCF-7 cell line it was 4.92.
As to `Nc1nnc(-c2ccccc2O)cc1C#CC1CC2(CCNCC2)C1` [Compound 10c, 2-(5-((7-Azaspiro[3.5]nonan-2-yl)ethynyl)-6-aminopyridazin-3-yl)phenol], the pIC50 is 6.72 against SMARCA2^BD protein (Table 1), 6.85 on SMARCA4^BD protein (Table 1), 4.83 in the series on A549 cell line and 5.15 in the series on MCF-7 cell line.
Turning to `CN(C)[C@H]1[C@@H]2CN(c3cc(-c4ccccc4O)nnc3N)C[C@@H]21` [Compound 20, 2-(6-amino-5-((1R,5S,6s)-6-(dimethylamino)-3-azabicyclo[3.1.0]hex-3-yl)pyridazin-3-yl)phenol], the pIC50 is 6.77 against SMARCA2^BD protein (Table 2), 6.92 against SMARCA4^BD protein (Table 2), 4.41 in the series with Hela cell line and 4.04 with SW1573 cell line.
Take `COC1(C#Cc2cc(-c3ccccc3O)nnc2N)CCC(N2CCCC2)CC1` (stereo not shown) [Compound 15, 2-(6-amino-5-((1-methoxy-4-(pyrrolidin-1-yl)cyclohexyl)ethynyl)pyridazin-3-yl)phenol]: the pIC50 against SMARCA2^BD protein (Table 2) is 6.72; against SMARCA4^BD protein (Table 2), 6.68; in the series on Hela cell line, 4.60; with SW1573 cell line, 4.88.
Regarding `CC(=O)N[C@H]1[C@@H]2CN(c3cc(-c4ccccc4O)nnc3N)C[C@@H]21` [Compound 21, N-((1R,5S,6s)-3-(3-amino-6-(2-hydroxyphenyl)pyridazin-4-yl)-3-azabicyclo[3.1.0]hexan-6-yl)acetamide], the pIC50 against SMARCA2^BD protein (Table 2) is 6.89; against SMARCA4^BD protein (Table 2), 6.60; in the series on Hela cell line, 4.16; with SW1573 cell line, under 4.00.
For the molecule `Nc1nnc(-c2ccccc2O)cc1C#CC1CCNC1` (stereo not shown) [Compound 2c, 2-(6-Amino-5-(pyrrolidin-3-ylethynyl)pyridazin-3-yl)phenol], the pIC50 was 6.48 against SMARCA2^BD protein (Table 1), 6.55 against SMARCA4^BD protein (Table 1), 5.14 in the series with A549 cell line and 5.33 in the series with MCF-7 cell line.
As to `COc1ccc(C#Cc2cc(-c3ccccc3O)nnc2N)cc1` [Compound 17, 2-(6-amino-5-((4-methoxyphenyl)ethynyl)pyridazin-3-yl)phenol], the negative-log IC50 (pIC50) against SMARCA2^BD protein (Table 2) is 5.96; on SMARCA4^BD protein (Table 2), under 5.43; in the series with Hela cell line, 4.18; in the series with SW1573 cell line, 4.00.
For the molecule `Nc1nnc(-c2ccccc2O)cc1C#CC1CCC2(CC1)CNC2` [Compound 5c, 2-(5-((2-Azaspiro[3.5]nonan-7-yl)ethynyl)-6-aminopyridazin-3-yl)phenol], the pIC50 at SMARCA2^BD protein (Table 1) was 6.89; against SMARCA4^BD protein (Table 1) it was 6.89; with A549 cell line it was 4.81; with MCF-7 cell line it was 5.12.
As to `O=C(/C=C/N1C[C@H]2C[C@@H]1CN2c1ccccn1)c1ccccc1O` [PFI-3], in the series on 148 cancer cells, the “inhibitory activity in 148 cancer cells” value is “did not show significant inhibitory activity”. For the same molecule, the chemical stability entry in series [1] is given as “poor chemical stability”.
With `Nc1nnc(-c2ccccc2O)cc1C#CC1CCC2(CCNCC2)CC1` [Compound 6c, 2-(5-((3-Azaspiro[5.5]undecan-9-yl)ethynyl)-6-aminopyridazin-3-yl)phenol], the pIC50 at SMARCA2^BD protein (Table 1) was 6.70; against SMARCA4^BD protein (Table 1), 6.82; in the series on A549 cell line, 4.87; in the series on MCF-7 cell line, 5.43.
With `Nc1nnc(-c2ccccc2O)cc1C#CC1CC2(CNC2)C1` [Compound 4c, 2-(5-((2-Azaspiro[3.3]hept-6-yl)ethynyl)-6-aminopyridazin-3-yl)phenol], the pIC50 on SMARCA2^BD protein (Table 1) was 6.72; against SMARCA4^BD protein (Table 1), 6.82; in the series with A549 cell line, 4.80; in the series with MCF-7 cell line, 4.91.
`CC(=O)N1CCN(c2cc(-c3ccccc3O)nnc2N)CC1` [Control compound, reference compound]: the pIC50 is 6.15 against SMARCA2^BD protein (Table 1); 6.28 against SMARCA4^BD protein (Table 1); under 4.00 in the series with A549 cell line; 4.13 with MCF-7 cell line; under 4.00 in the series on Hela cell line; under 4.00 with SW1573 cell line.
In the case of `Nc1nnc(-c2ccccc2O)cc1C#CC1CNC1` [Compound 3c, 2-(6-amino-5-(azetidinyl-3-ethylenylidene)pyridazin-3-yl)phenol], the pIC50 on SMARCA2^BD protein (Table 1) was 6.32; at SMARCA4^BD protein (Table 1), 6.24; in the series with A549 cell line, 4.14; in the series with MCF-7 cell line, 4.51.
